Experimental data as given in patent publication US20250282794A1 (CURADEV PHARMA LTD, priority 2022, published 2025).
pIC50: −log10 of the molar value.

target: recombinant full length HPK-1 enzyme (Homo sapiens (Human), UniProt Q92918); assay: HPK-1 biochemical enzyme assay (ADP-Glo kinase inhibition); details: recombinant full length HPK-1 6.8 nM, 10 μM ATP, 12.5 μM MBP, 30 mins at 25° C.
In short: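 ADP-Glo readout of ADP formed after a 30 min, 25° C. reaction of 6.8 nM full-length HPK-1 with swine myelin basic protein (12.5 μM) and ATP (10 μM) in Tris pH 7.4 buffer with MgCl2, DTT and BSA. Ten compound concentrations tested; percent inhibition set against vehicle (0%) and no-enzyme (100%) controls gave IC50.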

Chain of recombinant full length HPK-1 enzyme (Q92918 whole entry, species assumed): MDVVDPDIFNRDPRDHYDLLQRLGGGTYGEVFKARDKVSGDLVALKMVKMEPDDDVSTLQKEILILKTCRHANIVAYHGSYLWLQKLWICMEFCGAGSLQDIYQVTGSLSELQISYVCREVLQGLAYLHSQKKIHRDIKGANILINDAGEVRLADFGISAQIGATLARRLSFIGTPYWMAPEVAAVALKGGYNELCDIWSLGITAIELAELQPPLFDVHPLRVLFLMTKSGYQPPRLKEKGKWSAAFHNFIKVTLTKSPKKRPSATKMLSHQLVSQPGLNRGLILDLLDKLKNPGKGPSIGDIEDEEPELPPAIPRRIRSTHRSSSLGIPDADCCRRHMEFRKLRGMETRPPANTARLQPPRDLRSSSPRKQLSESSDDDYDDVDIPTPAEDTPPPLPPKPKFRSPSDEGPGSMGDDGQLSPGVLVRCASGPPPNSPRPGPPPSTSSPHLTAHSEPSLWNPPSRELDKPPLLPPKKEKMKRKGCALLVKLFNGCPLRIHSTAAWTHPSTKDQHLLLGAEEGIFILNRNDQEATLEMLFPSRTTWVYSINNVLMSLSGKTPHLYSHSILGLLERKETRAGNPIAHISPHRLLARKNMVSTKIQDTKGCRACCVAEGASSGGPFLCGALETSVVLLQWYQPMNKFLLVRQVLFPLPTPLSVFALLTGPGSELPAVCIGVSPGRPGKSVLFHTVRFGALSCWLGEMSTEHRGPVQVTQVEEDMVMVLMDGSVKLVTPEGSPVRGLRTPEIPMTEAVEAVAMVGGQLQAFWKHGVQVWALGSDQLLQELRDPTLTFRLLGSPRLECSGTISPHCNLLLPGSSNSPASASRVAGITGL

Structure (SMILES) | pIC50
Cc1c(Nc2cc[nH]c(=O)c2C(=O)Nc2ccc(N3CCC(C)(CO)CC3)cc2)cnc2c1NCCO2 [Example 301, N-(4-(4-(hydroxymethyl)-4-methylpiperidin-1-yl)phenyl)-4-((8-methyl-2,3-dihydro-1H-pyrido[2,3-b][1,4]oxazin-7-yl)amino)-2-oxo-1,2-dihydropyridine-3-carboxamide] | 7.00 to 8.00
Cc1c(Nc2cc[nH]c(=O)c2C(=O)Nc2ccc(N3CCC(C(C)O)CC3)cc2)cnc2c1NCCO2 (stereo not drawn) [Example 302, N-(4-(4-(1-hydroxyethyl)piperidin-1-yl)phenyl)-4-((8-methyl-2,3-dihydro-1H-pyrido[2,3-b][1,4]oxazin-7-yl)amino)-2-oxo-1,2-dihydropyridine-3-carboxamide] | ≥ 8.00
Cc1c(Nc2cc[nH]c(=O)c2C(=O)Nc2ccc(N3CCN(C(=O)c4ccn[nH]4)CC3)cc2)cnc2c1NCCO2 [Example 303, N-(4-(4-(1H-pyrazole-5-carbonyl)piperazin-1-yl)phenyl)-4-((8-methyl-2,3-dihydro-1H-pyrido[2,3-b][1,4]oxazin-7-yl)amino)-2-oxo-1,2-dihydropyridine-3-carboxamide] | ≥ 8.00
Cc1c(Nc2cc[nH]c(=O)c2C(=O)Nc2ccc(N3CCN(C(=O)C4CC(C)(C)C4)CC3)cc2)cnc2c1NCCO2 [Example 304, N-(4-(4-(3,3-dimethylcyclobutane-1-carbonyl)piperazin-1-yl)phenyl)-4-((8-methyl-2,3-dihydro-1H-pyrido[2,3-b][1,4]oxazin-7-yl)amino)-2-oxo-1,2-dihydropyridine-3-carboxamide] | ≥ 8.00
Cc1c(Nc2cc[nH]c(=O)c2C(=O)Nc2ccc(N3CCN(C(=O)C4CC4C)CC3)cc2)cnc2c1NCCO2 (stereo not drawn) [Example 305, 4-((8-methyl-2,3-dihydro-1H-pyrido[2,3-b][1,4]oxazin-7-yl)amino)-N-(4-(4-(2-methylcyclopropane-1-carbonyl)piperazin-1-yl)phenyl)-2-oxo-1,2-dihydropyridine-3-carboxamide] | ≥ 8.00
Cc1c(Nc2cc[nH]c(=O)c2C(=O)Nc2ccc(N3CCN(C(=O)C4(C)CCC4)CC3)cc2)cnc2c1NCCO2 [Example 306, 4-((8-methyl-2,3-dihydro-1H-pyrido[2,3-b][1,4]oxazin-7-yl)amino)-N-(4-(4-(1-methylcyclobutane-1-carbonyl)piperazin-1-yl)phenyl)-2-oxo-1,2-dihydropyridine-3-carboxamide] | ≥ 8.00
Cc1c(Nc2cc[nH]c(=O)c2C(=O)Nc2ccc(N3CCN(C(=O)C4CC(C)C4)CC3)cc2)cnc2c1NCCO2 (stereo not drawn) [Example 307, 4-((8-methyl-2,3-dihydro-1H-pyrido[2,3-b][1,4]oxazin-7-yl)amino)-N-(4-(4-(3-methylcyclobutane-1-carbonyl)piperazin-1-yl)phenyl)-2-oxo-1,2-dihydropyridine-3-carboxamide] | ≥ 8.00
Cc1c(Nc2cc[nH]c(=O)c2C(=O)Nc2ccc(N3CCN(Cc4ccnn4C)CC3)cc2)cnc2c1NCCO2 [Example 308, N-(4-(4-((1-methyl-1H-pyrazol-5-yl)methyl)piperazin-1-yl)phenyl)-4-((8-methyl-2,3-dihydro-1H-pyrido[2,3-b][1,4]oxazin-7-yl)amino)-2-oxo-1,2-dihydropyridine-3-carboxamide] | ≥ 8.00
Cc1c(Nc2cc[nH]c(=O)c2C(=O)Nc2ccc(N3CCN(C(=O)C4CC4(C)C)CC3)cc2)cnc2c1NCCO2 (stereo not drawn) [Example 309, N-(4-(4-(2,2-dimethylcyclopropane-1-carbonyl)piperazin-1-yl)phenyl)-4-((8-methyl-2,3-dihydro-1H-pyrido[2,3-b][1,4]oxazin-7-yl)amino)-2-oxo-1,2-dihydropyridine-3-carboxamide] | ≥ 8.00
COC(C)(C)CN1CCN(c2ccc(NC(=O)c3c(Nc4cnc5c(c4C)NCCO5)cc[nH]c3=O)cc2)CC1 [Example 310, N-(4-(4-(2-methoxy-2-methylpropyl)piperazin-1-yl)phenyl)-4-((8-methyl-2,3-dihydro-1H-pyrido[2,3-b][1,4]oxazin-7-yl)amino)-2-oxo-1,2-dihydropyridine-3-carboxamide] | ≥ 8.00
Cc1c(Nc2cc[nH]c(=O)c2C(=O)Nc2ccc(N3CCN(C(=O)CC4CC4)CC3)cc2)cnc2c1NCCO2 [Example 312, N-(4-(4-(2-cyclopropylacetyl)piperazin-1-yl)phenyl)-4-((8-methyl-2,3-dihydro-1H-pyrido[2,3-b][1,4]oxazin-7-yl)amino)-2-oxo-1,2-dihydropyridine-3-carboxamide] | ≥ 8.00
CCC(=O)N1CCN(c2ccc(NC(=O)c3c(Nc4cnc5c(c4C)NCC(C)O5)cc[nH]c3=O)cc2Cl)CC1 (stereo not drawn) [Example 313, N-(3-chloro-4-(4-propionylpiperazin-1-yl)phenyl)-4-((3,8-dimethyl-2,3-dihydro-1H-pyrido[2,3-b][1,4]oxazin-7-yl)amino)-2-oxo-1,2-dihydropyridine-3-carboxamide] | 7.00 to 8.00
Cc1c(Nc2cc[nH]c(=O)c2C(=O)Nc2ccc(N3CCN(C(=O)C(C)C)CC3)cc2)cnc2c1NCCO2 [Example 315, N-(4-(4-Isobutyrylpiperazin-1-yl)phenyl)-4-((8-methyl-2,3-dihydro-1H-pyrido[2,3-b][1,4]oxazin-7-yl)amino)-2-oxo-1,2-dihydropyridine-3-carboxamide] | ≥ 8.00
Cc1c(Nc2cc[nH]c(=O)c2C(=O)Nc2ccc(N3CCN(C(=O)c4ccnn4C)CC3)cc2)cnc2c1NCCO2 [Example 316, N-(4-(4-(1-methyl-1H-pyrazole-5-carbonyl)piperazin-1-yl)phenyl)-4-((8-methyl-2,3-dihydro-1H-pyrido[2,3-b][1,4]oxazin-7-yl)amino)-2-oxo-1,2-dihydropyridine-3-carboxamide] | 7.00 to 8.00
Cc1c(Nc2cc[nH]c(=O)c2C(=O)Nc2ccc(N3CCN(C(=O)N4CC(C)(C)C4)CC3)cc2)cnc2c1NCCO2 [Example 317, N-(4-(4-(3,3-dimethylazetidine-1-carbonyl)piperazin-1-yl)phenyl)-4-((8-methyl-2,3-dihydro-1H-pyrido[2,3-b][1,4]oxazin-7-yl)amino)-2-oxo-1,2-dihydropyridine-3-carboxamide] | ≥ 8.00
Cc1c(Nc2cc[nH]c(=O)c2C(=O)Nc2ccc(N3CCN(C(=O)C4CC(F)(F)C4)CC3)cc2)cnc2c1NCCO2 [Example 318, N-(4-(4-(3,3-difluorocyclobutane-1-carbonyl)piperazin-1-yl)phenyl)-4-((8-methyl-2,3-dihydro-1H-pyrido[2,3-b][1,4]oxazin-7-yl)amino)-2-oxo-1,2-dihydropyridine-3-carboxamide] | ≥ 8.00
Cc1c(Nc2cc[nH]c(=O)c2C(=O)Nc2ccc(N3CCN(C(=O)N4CC(F)(F)C4)CC3)cc2)cnc2c1NCCO2 [Example 319, N-(4-(4-(3,3-difluoroazetidine-1-carbonyl)piperazin-1-yl)phenyl)-4-((8-methyl-2,3-dihydro-1H-pyrido[2,3-b][1,4]oxazin-7-yl)amino)-2-oxo-1,2-dihydropyridine-3-carboxamide] | ≥ 8.00
Cc1c(Nc2cc[nH]c(=O)c2C(=O)Nc2ccc(N3CCN(C(=O)N4CC5(CCC5)C4)CC3)cc2)cnc2c1NCCO2 [Example 320, N-(4-(4-(2-azaspiro[3.3]heptane-2-carbonyl)piperazin-1-yl)phenyl)-4-((8-methyl-2,3-dihydro-1H-pyrido[2,3-b][1,4]oxazin-7-yl)amino)-2-oxo-1,2-dihydropyridine-3-carboxamide] | ≥ 8.00
Cc1c(Nc2cc[nH]c(=O)c2C(=O)Nc2ccc(N3CCN(C(=O)N4CC5(COC5)C4)CC3)cc2)cnc2c1NCCO2 [Example 321, N-(4-(4-(2-oxa-6-azaspiro[3.3]heptane-6-carbonyl)piperazin-1-yl)phenyl)-4-((8-methyl-2,3-dihydro-1H-pyrido[2,3-b][1,4]oxazin-7-yl)amino)-2-oxo-1,2-dihydropyridine-3-carboxamide] | 7.00 to 8.00
Cc1c(Nc2cc[nH]c(=O)c2C(=O)Nc2ccc(N3CCN(C(=O)c4ccn(C)n4)CC3)cc2)cnc2c1NCCO2 [Example 322, N-(4-(4-(1-methyl-1H-pyrazole-3-carbonyl)piperazin-1-yl)phenyl)-4-((8-methyl-2,3-dihydro-1H-pyrido[2,3-b][1,4]oxazin-7-yl)amino)-2-oxo-1,2-dihydropyridine-3-carboxamide] | 7.00 to 8.00
Cc1c(Nc2cc[nH]c(=O)c2C(=O)Nc2ccc(N3CCN4CCOC[C@H]4C3)cc2)cnc2c1NCCO2 [Example 323, (R)-N-(4-(hexahydropyrazino[2,1-c][1,4]oxazin-8(1H)-yl)phenyl)-4-((8-methyl-2,3-dihydro-1H-pyrido[2,3-b][1,4]oxazin-7-yl)amino)-2-oxo-1,2-dihydropyridine-3-carboxamide] | 7.00 to 8.00
Cc1c(Nc2cc[nH]c(=O)c2C(=O)Nc2ccc(N3CCN(C(=O)N4CCCC4)CC3)cc2)cnc2c1NCCO2 [Example 324, 4-((8-methyl-2,3-dihydro-1H-pyrido[2,3-b][1,4]oxazin-7-yl)amino)-2-oxo-N-(4-(4-(pyrrolidine-1-carbonyl)piperazin-1-yl)phenyl)-1,2-dihydropyridine-3-carboxamide] | ≥ 8.00
Cc1c(Nc2cc[nH]c(=O)c2C(=O)Nc2ccc(N3CCN(C(=O)N4CCC4)CC3)cc2)cnc2c1NCCO2 [Example 325, N-(4-(4-(azetidine-1-carbonyl)piperazin-1-yl)phenyl)-4-((8-methyl-2,3-dihydro-1H-pyrido[2,3-b][1,4]oxazin-7-yl)amino)-2-oxo-1,2-dihydropyridine-3-carboxamide] | ≥ 8.00
Cc1c(Nc2cc[nH]c(=O)c2C(=O)Nc2ccc(N3CCC(N4CCN(C(C)C)CC4)CC3)c(F)c2)cnc2c1NCC(C)O2 (stereo not drawn) [Example 326, 4-((3,8-dimethyl-2,3-dihydro-1H-pyrido[2,3-b][1,4]oxazin-7-yl)amino)-N-(3-fluoro-4-(4-(4-isopropylpiperazin-1-yl)piperidin-1-yl)phenyl)-2-oxo-1,2-dihydropyridine-3-carboxamide] | ≥ 8.00
